Source: ChEMBL document CHEMBL3885881, “DrugMatrix”

Species: Rattus norvegicus
Assay: DrugMatrix - Regimen: Daily Repeat
Type: toxicity, organism-based, Sprague-Dawley
Design: regimen Daily Repeat, gender Male, age 6-8 weeks
Conditions: in vivo, po, route oral GAVAGE, vehicle 60 % PEG400; for ABSOLUTE BASOPHIL / ABSOLUTE EOSINOPHIL / ABSOLUTE LYMPHOCYTE / ABSOLUTE MONOCYTE / ABSOLUTE SEGMENTED NEUTROPHIL / BASOPHIL / EOSINOPHIL / ERYTHROCYTE COUNT / HEMATOCRIT / HEMOGLOBIN / LEUKOCYTE COUNT / LYMPHOCYTE / MEAN CORPUSCULAR HEMOGLOBIN / MEAN CORPUSCULAR HEMOGLOBIN CONCENTRATION / MEAN CORPUSCULAR VOLUME / MONOCYTE / NEUTROPHIL / NUCLEATED RED BLOOD CELLS / PLATELET COUNT: tissue Blood; for ALANINE AMINOTRANSFERASE / ALBUMIN / ALKALINE PHOSPHATASE / ASPARTATE AMINOTRANSFERASE / BLOOD UREA NITROGEN / CARBON DIOXIDE / CHLORIDE / CHOLESTEROL / CREATINE PHOSPHOKINASE / CREATININE / GLUCOSE / LACTATE DEHYDROGENASE / LIPASE / PHOSPHORUS / POTASSIUM / SODIUM / TOTAL BILIRUBIN / TOTAL PROTEIN / URIC ACID: tissue Plasma
[1] = 0 mg/kg, 72 h, dose level Control, time 3 day
[2] = 0 mg/kg, 120 h, dose level Control, time 5 day
[3] = 0.001 mg/kg, 72 h, dose level Low, time 3 day

## N[C@@H](Cc1cc(I)c(Oc2ccc(O)c(I)c2)c(I)c1)C(=O)O [LIOTHYRONINE]
[1]
  ABSOLUTE BASOPHIL: 0 CELLS/uL
  ABSOLUTE EOSINOPHIL: 48.67 CELLS/uL
  ABSOLUTE LYMPHOCYTE: 11723.33 CELLS/uL
  ABSOLUTE MONOCYTE: 132.67 CELLS/uL
  ABSOLUTE SEGMENTED NEUTROPHIL: 1362 CELLS/uL
  BASOPHIL: 0%
  EOSINOPHIL: 0.33%
  ERYTHROCYTE COUNT: 5.61 x10E6/uL
  HEMATOCRIT: 33.53%
  HEMOGLOBIN: 13.13 G/DL
  LEUKOCYTE COUNT: 13.27 x10E3/uL
  LYMPHOCYTE: 88.33%
  MEAN CORPUSCULAR HEMOGLOBIN: 23.4 pg
  MEAN CORPUSCULAR HEMOGLOBIN CONCENTRATION: 39.17 G/DL
  MEAN CORPUSCULAR VOLUME: 59.8 fL
  MONOCYTE: 1%
  NEUTROPHIL: 10.33%
  NUCLEATED RED BLOOD CELLS: 0.67 /100WBC
  PLATELET COUNT: 967.33 x10E3/uL
  ALANINE AMINOTRANSFERASE: 60.33 u/L
  ALBUMIN: 4.3 G/DL
  ALKALINE PHOSPHATASE: 403.33 u/L
  ASPARTATE AMINOTRANSFERASE: 87 u/L
  BLOOD UREA NITROGEN: 14.67 mg/dL
  CARBON DIOXIDE: 31 mmol/L
  CHLORIDE: 103 MEQ/L
  CHOLESTEROL: 82.33 mg/dL
  CREATINE PHOSPHOKINASE: 376.33 u/L
  CREATININE: 0.17 mg/dL
  GLUCOSE: 146.33 mg/dL
  LACTATE DEHYDROGENASE: 196.33 u/L
  LIPASE: 12.33 u/L
  PHOSPHORUS: 11.43 mg/dL
  POTASSIUM: 6.79 MEQ/L
  SODIUM: 147.27 MEQ/L
  TOTAL BILIRUBIN: 0.2 mg/dL
  TOTAL PROTEIN: 6.13 G/DL
  URIC ACID: 1.33 mg/dL
[2]
  ABSOLUTE BASOPHIL: 0 CELLS/uL
  ABSOLUTE EOSINOPHIL: 19 CELLS/uL
  ABSOLUTE LYMPHOCYTE: 4849 CELLS/uL
  ABSOLUTE MONOCYTE: 38 CELLS/uL
  ABSOLUTE SEGMENTED NEUTROPHIL: 660.67 CELLS/uL
  BASOPHIL: 0%
  EOSINOPHIL: 0.33%
  ERYTHROCYTE COUNT: 4.95 x10E6/uL
  HEMATOCRIT: 29.67%
  HEMOGLOBIN: 11.53 G/DL
  LEUKOCYTE COUNT: 5.57 x10E3/uL
  LYMPHOCYTE: 87.67%
  MEAN CORPUSCULAR HEMOGLOBIN: 23.33 pg
  MEAN CORPUSCULAR HEMOGLOBIN CONCENTRATION: 38.9 G/DL
  MEAN CORPUSCULAR VOLUME: 59.87 fL
  MONOCYTE: 0.67%
  NEUTROPHIL: 11.33%
  NUCLEATED RED BLOOD CELLS: 0.33 /100WBC
  PLATELET COUNT: 653.33 x10E3/uL
  ALANINE AMINOTRANSFERASE: 48.33 u/L
  ALBUMIN: 4.27 G/DL
  ALKALINE PHOSPHATASE: 396 u/L
  ASPARTATE AMINOTRANSFERASE: 75.67 u/L
  BLOOD UREA NITROGEN: 15 mg/dL
  CARBON DIOXIDE: 31.33 mmol/L
  CHLORIDE: 103 MEQ/L
  CHOLESTEROL: 76.33 mg/dL
  CREATINE PHOSPHOKINASE: 182.67 u/L
  CREATININE: 0.2 mg/dL
  GLUCOSE: 181 mg/dL
  LACTATE DEHYDROGENASE: 88 u/L
  LIPASE: 8.33 u/L
  PHOSPHORUS: 12.33 mg/dL
  POTASSIUM: 6.09 MEQ/L
  SODIUM: 146.47 MEQ/L
  TOTAL BILIRUBIN: 0.17 mg/dL
  TOTAL PROTEIN: 6.3 G/DL
  URIC ACID: 1.43 mg/dL
[3]
  ABSOLUTE BASOPHIL: 0 CELLS/uL
  ABSOLUTE EOSINOPHIL: 72.67 CELLS/uL
  ABSOLUTE LYMPHOCYTE: 12680.33 CELLS/uL
  ABSOLUTE MONOCYTE: 379.67 CELLS/uL
  ABSOLUTE SEGMENTED NEUTROPHIL: 1067.33 CELLS/uL
  BASOPHIL: 0%
  EOSINOPHIL: 0.67%
  ERYTHROCYTE COUNT: 5.31 x10E6/uL
  HEMATOCRIT: 34.1%
  HEMOGLOBIN: 13.1 G/DL
  LEUKOCYTE COUNT: 14.2 x10E3/uL
  LYMPHOCYTE: 89.33%
  MEAN CORPUSCULAR HEMOGLOBIN: 24.67 pg
  MEAN CORPUSCULAR HEMOGLOBIN CONCENTRATION: 38.47 G/DL
  MEAN CORPUSCULAR VOLUME: 64.17 fL
  MONOCYTE: 2.33%
  NEUTROPHIL: 7.67%
  NUCLEATED RED BLOOD CELLS: 0 /100WBC
  PLATELET COUNT: 1001 x10E3/uL
  ALANINE AMINOTRANSFERASE: 51 u/L
  ALBUMIN: 4.37 G/DL
  ALKALINE PHOSPHATASE: 321 u/L
  ASPARTATE AMINOTRANSFERASE: 82.33 u/L
  BLOOD UREA NITROGEN: 17.33 mg/dL
  CARBON DIOXIDE: 29.67 mmol/L
  CHLORIDE: 105.33 MEQ/L
  CHOLESTEROL: 79.67 mg/dL
  CREATINE PHOSPHOKINASE: 347 u/L
  CREATININE: 0.16 mg/dL
  GLUCOSE: 144 mg/dL
  LACTATE DEHYDROGENASE: 167.33 u/L
  LIPASE: 13 u/L
  PHOSPHORUS: 12.4 mg/dL
  POTASSIUM: 6.56 MEQ/L
  SODIUM: 146.23 MEQ/L
  TOTAL BILIRUBIN: 0.2 mg/dL
  TOTAL PROTEIN: 6.03 G/DL
